biological target: T1, human orexin type 2 receptor (Homo sapiens, UniProt O43614); experiment: Measurement of orexin type 2 receptor agonist activity (calcium fluorescence, Fluo-4 AM, FDSS) in CHO cells forcibly expressing human OX2 receptor; type: cell-based; conditions: test compound 3 μM, DMSO = 0%, orexin A (human) 10 nM = 100%
T1 construct: expressed in transfected cells
T1 sequence (O43614 1-444): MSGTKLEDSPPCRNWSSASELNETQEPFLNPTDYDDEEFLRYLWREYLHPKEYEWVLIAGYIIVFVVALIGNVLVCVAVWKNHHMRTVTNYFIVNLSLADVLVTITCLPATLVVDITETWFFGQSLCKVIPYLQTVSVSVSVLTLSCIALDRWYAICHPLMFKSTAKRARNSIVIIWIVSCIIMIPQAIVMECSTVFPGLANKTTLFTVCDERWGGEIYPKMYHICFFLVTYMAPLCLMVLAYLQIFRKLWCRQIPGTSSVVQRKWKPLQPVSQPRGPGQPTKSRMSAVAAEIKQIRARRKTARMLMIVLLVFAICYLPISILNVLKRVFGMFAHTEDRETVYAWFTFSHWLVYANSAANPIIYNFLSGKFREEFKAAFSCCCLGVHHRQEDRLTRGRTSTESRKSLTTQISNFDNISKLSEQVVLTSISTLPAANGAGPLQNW
Procedure, shortened: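 CHO-dhfr cells stably expressing human OX2 receptor, loaded with Fluo-4 AM plus probenecid for 30 min at 37 °C, then 30 min at room temperature. Calcium fluorescence read for about 2 min 40 s after compound addition. Activity (%) scaled between DMSO (0%) and 10 nM human orexin A (100%).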

SMILES | 0X2R agonist activity (3 μM, %) [%]
CCc1cccc(C[C@H]2[C@@H](NS(C)(=O)=O)CCc3ccc(CC)c(=O)n32)c1 (racemic) [Example 135, rac-N-{(3S,4S)-7-ethyl-4-[(3-ethylphenyl)methyl]-6-oxo-1,3,4,6-tetrahydro-2H-quinolizin-3-yl}methanesulfonamide] | 90
Cc1cc2n(c(=O)c1C)[C@@H](Cc1cccc(-c3ccccc3)c1)[C@@H](NS(C)(=O)=O)CC2 (racemic) [Example 19, rac-N-{(3S,4S)-4-[([1,1′-biphenyl]-3-yl)methyl]-7,8-dimethyl-6-oxo-1,3,4,6-tetrahydro-2H-quinolizin-3-yl}methanesulfonamide] | 122
Cc1ccc2n(c1=O)[C@@H](Cc1cccc(-c3cccc(F)c3)c1)[C@@H](NS(C)(=O)=O)CC2 (relative stereo) [Example 69, rel-N-{(3S,4S)-4-[(3′-fluoro[1,1′-biphenyl]-3-yl)methyl]-7-methyl-6-oxo-1,3,4,6-tetrahydro-2H-quinolizin-3-yl}methanesulfonamide] | 94
CS(=O)(=O)N[C@H]1CCc2ccc(F)c(=O)n2[C@H]1Cc1cccc(-c2ccccc2)c1 (racemic) [Example 16, rac-N-{(3S,4S)-4-[([1,1′-biphenyl]-3-yl)methyl]-7-fluoro-6-oxo-1,3,4,6-tetrahydro-2H-quinolizin-3-yl}methanesulfonamide] | 95
Cc1cccc(-c2cccc(C[C@@H]3c4c(ncn(C(C)C)c4=O)CC[C@@H]3NS(C)(=O)=O)c2)c1 (racemic) [Example 106, rac-N-[(5R,6S)-5-[(3′-methyl[1,1′-biphenyl]-3-yl)methyl]-4-oxo-3-(propan-2-yl)-3,4,5,6,7,8-hexahydroquinazolin-6-yl]methanesulfonamide] | 103
CCc1ccc2n(c1=O)C(Cc1cccc(-c3cc(F)cc(F)c3)c1)C(NS(C)(=O)=O)CC2 (racemic) [Example 101, rac-N-{(3S,4S)-4-[(3′,5′-difluoro[1,1′-biphenyl]-3-yl)methyl]-7-ethyl-6-oxo-1,3,4,6-tetrahydro-2H-quinozilin-3-yl}methanesulfonamide] | 98
CCn1ccc2c(c1=O)[C@@H](Cc1cccc(-c3cccn(C)c3=O)c1)[C@@H](NS(C)(=O)=O)CC2 (racemic) [Example 129, rac-N-[(7S,8R)-2-ethyl-8-{[3-(1-methyl-2-oxo-1,2-dihydropyridin-3-yl)phenyl]methyl}-1-oxo-1,2,5,6,7,8-hexahydroisoquinolin-7-yl]methanesulfonamide] | 98
CC(C)n1cnc2c(c1=O)[C@@H](Cc1cccc(-c3cc(F)cc(F)c3)c1)[C@@H](NS(C)(=O)=O)CC2 (racemic) [Example 67, rac-N-[(5R,6S)-5-[(3′,5′-difluoro[1,1′-biphenyl]-3-yl)methyl]-4-oxo-3-(propan-2-yl)-3,4,5,6,7,8-hexahydroquinazolin-6-yl]methanesulfonamide] | 105
Cc1cc2n(c(=O)c1)[C@@H](Cc1cccc(-c3ccccc3)c1)[C@@H](NS(C)(=O)=O)CC2 (racemic) [Example 14, rac-N-{(3S,4S)-4-[([1,1′-biphenyl]-3-yl)methyl]-8-methyl-6-oxo-1,3,4,6-tetrahydro-2H-quinolizin-3-yl}methanesulfonamide] | 107
CCn1ccc2c(c1=O)[C@@H](Cc1cccc(-c3ccccc3F)c1)[C@@H](NS(C)(=O)=O)CC2 (racemic) [Example 119, rac-N-{(7S,8R)-2-ethyl-8-[(2′-fluoro[1,1′-biphenyl]-3-yl)methyl]-1-oxo-1,2,5,6,7,8-hexahydroisoquinolin-7-yl}methanesulfonamide] | 105
CCS(=O)(=O)N[C@H]1CCc2ncn(C(C)C)c(=O)c2[C@H]1Cc1cccc(-c2cccc(F)c2)c1 (racemic) [Example 81, rac-N-[(5R,6S)-5-[(3′-fluoro[1,1′-biphenyl]-3-yl)methyl]-4-oxo-3-(propan-2-yl)-3,4,5,6,7,8-hexahydroquinazolin-6-yl]ethanesulfonamide] | 96
Cc1cccc(-c2cccc(C[C@@H]3c4c(ncn(C(C)C)c4=O)CC[C@@H]3NS(C)(=O)=O)c2)c1F (racemic) [Example 108, rac-N-[(5R,6S)-5-[(2′-fluoro-3′-methyl[1,1′-biphenyl]-3-yl)methyl]-4-oxo-3-(propan-2-yl)-3,4,5,6,7,8-hexahydroquinazolin-6-yl]methanesulfonamide] | 100
CC(C)c1ccc2n(c1=O)[C@@H](Cc1cccc(-c3cccc(F)c3)c1F)[C@@H](NC(=O)C(=O)N(C)C)CC2 (racemic) [Example 40, rac-N~2~-[(3S,4S)-4-[(2,3′-difluoro[1,1′-biphenyl]-3-yl)methyl]-6-oxo-7-(propan-2-yl)-1,3,4,6-tetrahydro-2H-quinolizin-3-yl]-N~1~,N~1~-dimethylethanediamide] | 93
CCn1ccc2c(c1=O)[C@@H](Cc1cccc(-c3ccccc3)c1F)[C@@H](NS(C)(=O)=O)CC2 (racemic) [Example 87, rac-N-{(7S,8R)-2-ethyl-8-[(2-fluoro[1,1′-biphenyl]-3-yl)methyl]-1-oxo-1,2,5,6,7,8-hexahydroisoquinolin-7-yl}methanesulfonamide] | 97
CC(C)n1cnc2c(c1=O)[C@@H](Cc1cccc(-c3cccc(F)c3F)c1F)[C@@H](NS(C)(=O)=O)CC2 (relative stereo) [Example 151, rel-N-{(5R,6S)-4-oxo-3-(propan-2-yl)-5-[(2,2′,3′-trifluoro[1,1′-biphenyl]-3-yl)methyl]-3,4,5,6,7,8-hexahydroquinazolin-6-yl}methanesulfonamide] | 107
CCn1ccc2c(c1=O)[C@@H](Cc1cccc(-c3cccc(F)c3F)c1)[C@@H](NS(C)(=O)=O)CC2 (racemic) [Example 124, rac-N-{(7S,8R)-8-[(2′,3′-difluoro[1,1′-biphenyl]-3-yl)methyl]-2-ethyl-1-oxo-1,2,5,6,7,8-hexahydroisoquinolin-7-yl}methanesulfonamide] | 105

Results, then the compound that gave them:

0X2R agonist activity (3 μM, %) [%] | SMILES
94 | CC(C)n1cnc2c(c1=O)[C@@H](Cc1cccc(-c3cccc(C(F)F)c3F)c1F)[C@@H](NS(C)(=O)=O)CC2 (relative stereo) [Example 152, rel-N-[(5R,6S)-5-{[3′-(difluoromethyl)-2,2′-difluoro[1,1′-biphenyl]-3-yl]methyl}-4-oxo-3-(propan-2-yl)-3,4,5,6,7,8-hexahydroquinazolin-6-yl]methanesulfonamide]
95 | CC(C)n1c(=O)c2c(n1C)CCC(NS(C)(=O)=O)C2Cc1cccc(-c2ccccc2)c1 [Example 208, rel-N-[(4aR,5S)-4-[([1,1′-biphenyl]-3-yl)methyl]-1-methyl-3-oxo-2-(propan-2-yl)-2,3,4,5,6,7-hexahydro-1H-indazol-5-yl]methanesulfonamide]
90 | CC(C)n1cnc2c(c1=O)[C@@H](Cc1cccc(-c3cc(F)cc(F)c3)c1F)[C@@H](NS(=O)(=O)CF)CC2 [Example 199, 1-fluoro-N-{(5R,6S)-4-oxo-3-(propan-2-yl)-5-[(2,3′,5′-trifluoro[1,1′-biphenyl]-3-yl)methyl]-3,4,5,6,7,8-hexahydroquinazolin-6-yl}methanesulfonamide]
74 | Cn1cc2n(c1=O)[C@@H](Cc1cccc(-c3cc(F)cc(F)c3)c1F)[C@@H](NS(C)(=O)=O)CC2 (racemic) [Example 209, rac-N-{(5S,6S)-2-methyl-3-oxo-5-[(2,3′,5′-trifluoro[1,1′-biphenyl]-3-yl)methyl]-2,3,5,6,7,8-hexahydroimidazo[1,5-a]pyridin-6-yl}methanesulfonamide]
82 | CCc1c(C)n(C)c2c(c1=O)[C@@H](Cc1cccc(-c3ccccc3)c1)[C@@H](NS(C)(=O)=O)CC2 (racemic) [Example 211, rac-N-{(5R,6S)-5-[([1,1′-biphenyl]-3-yl)methyl]-3-ethyl-1,2-dimethyl-4-oxo-1,4,5,6,7,8-hexahydroquinolin-6-yl}methanesulfonamide]
101 | CC(C)N1CNC2=C(C1=O)[C@@H](Cc1cccc(-c3ccccc3)c1)[C@@H](NS(C)(=O)=O)CC2(F)F (racemic) [Example 162, rac-N-[(5R,6S)-5-[([1,1′-biphenyl]-3-yl)methyl]-8,8-difluoro-4-oxo-3-(propan-2-yl)-1,2,3,4,5,6,7,8-octahydroquinazolin-6-yl]methanesulfonamide]
105 | [2H]C([2H])([2H])C([2H])(n1cnc2c(c1=O)C(Cc1cccc(-c3ccccc3)c1F)C(NS(=O)(=O)C1(F)CC1)CC2)C([2H])([2H])[2H] [Example 213, rel-1-fluoro-N-{(5S,6R)-5-[(2-fluoro[1,1′-biphenyl]-3-yl)methyl]-4-oxo-3-[(~2~H_7_)propan-2-yl]-3,4,5,6,7,8-hexahydroquinazolin-6-yl}cyclopropane-1-sulfonamide]
95 | CCS(=O)(=O)N[C@H]1CCc2ncn(C(C)C)c(=O)c2[C@H]1Cc1cccc(-c2cc(F)cc(F)c2)c1 [Example 177, N-[(5R,6S)-5-[(3′,5′-difluoro[1,1′-biphenyl]-3-yl)methyl]-4-oxo-3-(propan-2-yl)-3,4,5,6,7,8-hexahydroquinazolin-6-yl]ethanesulfonamide]
